From patent US10689377B2 (Mirati Therapeutics, Inc., priority 2017, dated 2020)

Each compound was assayed against KRas G12C (Homo sapiens, UniProt P01116, G12C) (assay: Cellular inhibition of KRas G12C measured by Phospho-ERK in NCI-H358 cells). Details: pERK(Thr202/Tyr204) normalized with GAPDH, NCI-H358 cells, 3 hours; read-out: IC50.
Type: cell-based
Summary of the method: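 NCI-H358 cells were allowed to attach for 8-12 hours, then exposed to compounds for 3 hours at 0.5% DMSO final. After formaldehyde fixation and methanol permeabilization, phospho-ERK (Thr202/Tyr204) was detected by in-cell immunofluorescence and normalized to GAPDH; IC50 came from a 4-parameter fit of percent-of-DMSO values.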

KRas G12C, sequence (P01116 1-188 isoform P01116-2 G12C): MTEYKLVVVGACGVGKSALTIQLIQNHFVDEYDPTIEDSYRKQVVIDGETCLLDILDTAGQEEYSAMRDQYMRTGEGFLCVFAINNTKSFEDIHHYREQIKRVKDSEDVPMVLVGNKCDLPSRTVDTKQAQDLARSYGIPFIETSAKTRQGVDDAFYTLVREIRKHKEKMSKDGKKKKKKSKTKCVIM

Row | SMILES | IC50 [nM]
1 | C=C(F)C(=O)N1CCN(c2nc(OC[C@@H]3[C@H](O)CC(=O)N3C)nc3c2CCN(c2cccc4cccc(C)c24)C3)C[C@@H]1CC#N [Example 570, 2-[(2S)-1-(2-Fluoroprop-2-enoyl)-4-[2-[[(2R,3R)-3-hydroxy-1-methyl-5-oxo-pyrrolidin-2-yl]methoxy]-7-(8-methyl-1-naphthyl)-6,8-dihydro-5H-pyrido[3,4-d]pyrimidin-4-yl]piperazin-2-yl]acetonitrile] | > 1000
2 | C=C(F)C(=O)N1CCN(c2nc(OC[C@@H]3[C@H](O)CC(=O)N3C)nc3c2CCN(c2cccc4cccc(Cl)c24)C3)C[C@@H]1CC#N [Example 573, 2-[(2S)-4-[7-(8-Chloro-1-naphthyl)-2-[[(2R,3R)-3-hydroxy-1-methyl-5-oxo-pyrrolidin-2-yl]methoxy]-6,8-dihydro-5H-pyrido[3,4-d]pyrimidin-4-yl]-1-(2-fluoroprop-2-enoyl)piperazin-2-yl]acetonitrile] | > 1000
3 | CN1CC[C@@H](COc2nc3c(c(N4CCN(C(=O)/C=C/CF)[C@@H](CC#N)C4)n2)CCN(c2cccc4cccc(Cl)c24)C3)C1 [Example 584, 2-[(2S)-4-[7-(8-chloro-1-naphthyl)-2-[[(3R)-1-methylpyrrolidin-3-yl]methoxy]-6,8-dihydro-5H-pyrido[3,4-d]pyrimidin-4-yl]-1-[(E)-4-fluorobut-2-enoyl]piperazin-2-yl]acetonitrile] | 0.1 to 1000
4 | Cc1cccc2cccc(N3CCc4c(nc(OC[C@@H]5CC(F)(F)CN5C)nc4N4CCN(C(=O)/C=C/CF)[C@@H](CC#N)C4)C3)c12 [Example 601, 2-[(2S)-4-[2-[[(2S)-4,4-difluoro-1-methyl-pyrrolidin-2-yl]methoxy]-7-(8-methyl-1-naphthyl)-6,8-dihydro-5H-pyrido[3,4-d]pyrimidin-4-yl]-1-[(E)-4-fluorobut-2-enoyl]piperazin-2-yl]acetonitrile] | 0.1 to 1000
5 | C=C(F)C(=O)N1CCN(c2nc(OC[C@@H]3CCCN3C)nc3c2CCN(c2cccc4ccccc24)C3)C[C@@H]1CC#N [Example 602, 2-[(2S)-1-(2-fluoroprop-2-enoyl)-4-[2-[[(2S)-1-methylpyrrolidin-2-yl]methoxy]-7-(1-naphthyl)-6,8-dihydro-5H-pyrido[3,4-d]pyrimidin-4-yl]piperazin-2-yl]acetonitrile] | 0.1 to 1000
6 | C=C(F)C(=O)N1CCN(c2nc(OCC3CCCC3)nc3c2CCN(c2cccc4cccc(C)c24)C3)C[C@@H]1CC#N [Example 603, 2-[(2S)-4-[2-(cyclopentylmethoxy)-7-(8-methyl-1-naphthyl)-6,8-dihydro-5H-pyrido[3,4-d]pyrimidin-4-yl]-1-(2-fluoroprop-2-enoyl)piperazin-2-yl]acetonitrile] | > 1000
7 | C=C(F)C(=O)N1CCN(c2nc(OC[C@@H]3CCCN3C)nc3c2CCN(c2c(C)c(C)cc4[nH]ncc24)C3)C[C@@H]1CC#N [Example 604, 2-[(2S)-4-[7-(5,6-dimethyl-1H-indazol-4-yl)-2-[[(2S)-1-methylpyrrolidin-2-yl]methoxy]-6,8-dihydro-5H-pyrido[3,4-d]pyrimidin-4-yl]-1-(2-fluoroprop-2-enoyl)piperazin-2-yl]acetonitrile] | 0.1 to 1000
8 | C=C(F)C(=O)N1CCN(c2nc(OCc3ccccn3)nc3c2CCN(c2cccc4cccc(C)c24)C3)C[C@@H]1CC#N [Example 605, 2-[(2S)-1-(2-fluoroprop-2-enoyl)-4-[7-(8-methyl-1-naphthyl)-2-(2-pyridylmethoxy)-6,8-dihydro-5H-pyrido[3,4-d]pyrimidin-4-yl]piperazin-2-yl]acetonitrile] | > 1000
9 | C=C(F)C(=O)N1CCN(c2nc(OC[C@@H]3C[C@@H](F)CN3C)nc3c2CCN(c2c(C)c(C)cc4[nH]ncc24)C3)C[C@@H]1CC#N [Example 606, 2-((S)-4-(7-(5,6-dimethyl-1H-indazol-4-yl)-2-(((2S,4R)-4-fluoro-1-methylpyrrolidin-2-yl)methoxy)-5,6,7,8-tetrahydropyrido[3,4-d]pyrimidin-4-yl)-1-(2-fluoroacryloyl)piperazin-2-yl)acetonitrile] | 0.1 to 1000
